Experimental data as given in US6017932A, “Pharmaceutical compositions containing at least one NSAID having increased bioavailability” (priority 1996, dated 2000).
“Also recorded” adds a separate entry of the source. Where two headings read alike, the source gives them in different places.

How the values were obtained:
[1] = cited from earlier work; for effect of Piperine on bio-availability (in words): with Piperine; for mean increase in AUC: formulations with Piperine vs without
[2] = Plasma levels of Nimesulide in rats after composition with/without Piperine (Experiment I); type: in vivo, albino rats
Protocol: The rats were housed 5 per cage with food and water provided ad libidum.
On the day of experimentation the rats were randomised into ten batches of 5 rats each. Four groups were formed. Group I consisted of one batch of 5 rats, which was kept as control which received no drug treatment. Group II consisted of four batches of five rats each. […] Rats of batch I from Group II were sacrificed 60 minutes post treatment after Chloroform anaesthesia. Batch 2,3 and 4 were similarly sacrificed at 120 min., 240 min. and 360 min. post treatment respectively. Blood was collected from the rats from the ventricle into heparinised tubes.
Group III consisted of one batch of 5 rats, which received only Piperine at a dose level of 1.0 mg/kg body wt. The animals were sacrificed 160 minutes post treatment after Chloroform anaesthesia. Blood was collected from the rats from the ventricle into heparinised tubes.
Group IV consisted of 4 batches of 5 rats each. […] Rats of batch 1 from Group IV were sacrificed 60 minutes post treatment after Chloroform anaesthesia. Batch 2, 3 and 4 were similarly sacrificed at 120 min., 240 min. and 360 min. post treatment respectively. Blood was collected from the rats from the ventricle into heparinised tubes.
The blood samples were centrifuged at 3700 rpm and the plasma separated. To 1 ml plasma 0.5 ml of HCl was added and then extracted with 2 ml of benzene. Extracted benzene was evaporated in a water bath at 95° C. and reconstituted with 100 μl of mobile phase and 10 μl was injected into the HPLC.
Waters HPLC fitted with C8 μ Bondapack was used along with Waters UV-Vis detector (254 nm). Acetonitrile 50% with 50% Ammonium di-hydrogen Phosphate (0.01M) in double distilled, filtered (0.22 μ) water was used as the mobile phase.
Unpaired student T test was applied on the data. Level of significance was fixed at p<0.05.

[3] = in words; cited from earlier work
[4] = test system: COX-II; conditions: vs COX-I; cited from earlier work
[5] = cited from earlier work
[6] = test system: histamine release, neutrophil myeloperoxidase pathway, bradykinin activity, phosphodiesterase type IV and others; conditions: in words; cited from earlier work
[7] = cited from earlier work; remark: listed apart in the source
[8] = relative to other NSAIDs; cited from earlier work
[9] = test system: renal prostaglandin synthesis; conditions: rats; cited from earlier work
[10] = in vivo; conditions: rat, plasma, po, 10 mg/kg
Protocol: The single test point pharmacokinetic studies were performed in two groups of rats. […] Rats were sacrificed at 90 minutes. post treatment and blood samples were analysed by HPLC.

[11] = rectal, nimesulide 100 and 200 mg; cited from earlier work
[12] = test system: plasma proteins; conditions: human; cited from earlier work
[13] = test system: yeast-induced fever; conditions: rats with yeast-induced fever; cited from earlier work
[14] = test system: painful inflammatory conditions; conditions: cited from earlier work
[15] = oral, 50 to 200 mg nimesulide, healthy adult volunteers

With `CCCCNC(=O)NS(=O)(=O)c1ccc(C)cc1` [tolbutamide] as the molecule, how does the “effect of Piperine on bio-availability (in words)” value [1] read?
The value was “no effect on enhancing the bio-availability”.

For `O=C(/C=C/C=C/c1ccc2c(c1)OCO2)N1CCCCC1` [Piperine, (E, E) 1-[5-(1,3-benzodioxyl-5-yl)-1-oxo-2,4-pentadenyl] piperidine], which “Plasma levels of Nimesulide” value ([2]; 120 min. post treatment, Nimesulide 1.8 mg/kg with or without Piperine 1.0 mg/kg, oral, rats) is on record?
Its value is “Nil”.

And the solubility / insolubility [3]?
The solubility / insolubility was “soluble in benzene, chloroform, ether, ethyl acetate, dichloromethane, alcohol, acetic acid and insoluble in water, pet. ether”.

With `COc1ccc2cc(CCC(C)=O)ccc2c1` [Nabumetone] as the molecule, how does the “COX-II selectivity (in words)” value [4] read?
Its value is “selectively inhibit the detrimental COX-II”.

With `NC(=O)c1cnccn1` [Pyrazinamide] as the molecule, how does the “mean increase in AUC” value [1] read?
The value was 36%.

With `NNC(=O)c1ccncc1` [Isoniazid] as the molecule, how does the “mean increase in AUC” value [1] read?
The value was 131%.

What does the source list for `CS(=O)(=O)Nc1ccc([N+](=O)[O-])cc1Oc1ccc(O)cc1` [4-hydroxy-nimesulide]?
accumulation ([5]; patients with moderate renal impairment): Slight accumulation; other effects [6]: appears to contribute to the anti-inflammatory activity

Which “mean increase in AUC” value [1] does the source give for `CO[C@H]1/C=C/O[C@@]2(C)Oc3c(C)c(O)c4c(O)c(c(/C=N/N5CCN(C)CC5)c(O)c4c3C2=O)NC(=O)/C(C)=C\C=C\[C@H](C)[C@H](O)[C@@H](C)[C@@H](O)[C@@H](C)[C@H](OC(C)=O)[C@@H]1C` [Rifampicin] here?
The value was 37.6%.

Which “effect of Piperine on bio-availability (in words)” value [1] does the source give for `CC[C@@H](CO)NCCN[C@@H](CC)CO` [Ethambutol] here?
Its value is “increase bio-availability”.

Which “Concentration of the drug in plasma” value ([2]; 240 min, Nimesulide alone 1.8 mg/kg) does the source give for `CS(=O)(=O)Nc1ccc([N+](=O)[O-])cc1Oc1ccccc1` [Nimesulide, N-(4-nitro, 2-phenoxyphenyl) methanesulfonamide] here?
Its value is 4.6 ± 1.4 kg/mL.

What about the concentration at 1 h ([2]; rat, plasma, po, 1.8 mg/kg) of the same molecule?
The concentration at 1 h was 5800 ± 1700 µg/mL.

And the concentration at 2 h ([2]; rat, plasma, po, 1.8 mg/kg)?
Its concentration at 2 h is 7900 ± 2300 µg/mL.

What about the concentration at 4 h ([2]; rat, plasma, po, 1.8 mg/kg) of the same molecule?
Its concentration at 4 h is 4600 ± 1400 µg/mL.

And the concentration at 6 h ([2]; rat, plasma, po, 1.8 mg/kg)?
Its concentration at 6 h is 2200 ± 1100 µg/mL.

What about the “effect of food on absorption” value ([7]; concomitant administration of food) of the same molecule?
The value was “may decrease the rate, but not the extent, of absorption”.

What about the “apparent volume of distribution” value ([7]; following oral administration) of the same molecule?
The value was 0.19 to 0.35 L/kg.

And the “dose excreted unchanged in the urine” value ([7]; human, in vivo, po)?
Its value is 1 to 3%.

What about the biotransformation ([7]; in words) of the same molecule?
Its biotransformation is “almost completely biotransformed into 4-hydroxy-nimesulide”.

What about the oral drug absorption ([7]; in words) of the same molecule?
Its oral drug absorption is “nearly complete”.

And the peak serum concentrations [7, 15]?
Its peak serum concentrations is 1.98 to 9.85 mg/L.

What about the “time to peak serum concentration” value [7, 15] of the same molecule?
The value was 1.22 to 3.17 h.

What about the elimination half-life ([7]; parent compound) of the same molecule?
The elimination half-life was 1.56 to 4.95 h.

And the “ulcerogenicity / gastric tolerance” value [8]?
Its value is “less ulcerogenic than aspirin, indomethacin, naproxen, piroxicam and ibuprofen; also recorded: better gastric tolerance than other commonly used NSAIDs”.

What about the “effect on renal prostaglandin synthesis” value [9] of the same molecule?
The value was “little effect on renal prostaglandin synthesis in rats”.

What about the “pharmacokinetic profile in special populations” value ([5]; children, elderly volunteers, moderately impaired renal function (creatinine clearance 1.8 to 4.8 L/h)) of the same molecule?
The value was “not significantly altered”.

And the other effects [6]?
The other effects was “appears to exert its effects on histamine release, the neutrophil myeloperoxidase pathway, bradykinin activity, tumour necrosis factor-a release, cartilage degradation, metalloprotease synthesis, phosphodiesterase type IV inhibition, platelet aggregation and synthesis of platelet activating factor”.

And the concentration at 1.5 h [10]?
The concentration at 1.5 h was 8820 µg/mL.

What about the peak serum concentrations [11] of the same molecule?
The peak serum concentrations was 2.14 to 2.32 mg/L.

And the “time to peak serum concentration” value [11]?
The value was 3 to 4.58 h.

What about the “bound to plasma proteins” value [12] of the same molecule?
Its value is 99%.

And the antipyretic potency [13]?
Its antipyretic potency is “superior antipyretic potency to indomethacin, ibuprofen, aspirin and paracetamol (acetaminophen)”.

And the onset of analgesia ([14]; human, in vivo)?
Its onset of analgesia is “rapid onset of analgesia”.

And the “efficacy in cancer pain” value ([14]; in words)?
The value was “highly efficaceous in cancer pain”.

And the “clinical efficacy vs placebo” value ([14]; oral mostly 200 mg/day or rectal 400 mg/day)?
The value was “more effective than placebo”.

And the “clinical efficacy vs other NSAIDs” value ([14]; vs piroxicam, ketoprofen, naproxen, etodolac, mefenamic acid, diclofenac and others)?
Its value is “at least as effective as therapeutic dosages of other NSAIDs”.
